Numbers after ± are expanded uncertainties.
Details: Liquid

CCOC(=O)CC [ethyl propanoate]
Details	mass density [kg/m3]
298.15 K, 100 kPa	884.3 ± 0.8
298.15 K, 1000 kPa	884.8 ± 0.8
298.15 K, 2000 kPa	885.7 ± 0.9
298.15 K, 3000 kPa	886.6 ± 0.9
298.15 K, 3340 kPa	886.9 ± 0.9
298.15 K, 5000 kPa	888.7 ± 0.9
298.15 K, 10000 kPa	892.9 ± 1.1
298.15 K, 15000 kPa	896.9 ± 1.2
298.15 K, 20000 kPa	900.7 ± 1.3
298.15 K, 25000 kPa	904.4 ± 1.5
298.15 K, 30000 kPa	908.9 ± 1.5
298.15 K, 35000 kPa	913.6 ± 1.6
303.15 K, 100 kPa	878.5 ± 0.8
303.15 K, 1000 kPa	879 ± 0.8
303.15 K, 2000 kPa	880 ± 0.9
303.15 K, 3000 kPa	880.9 ± 0.9
303.15 K, 3340 kPa	881.2 ± 0.9
303.15 K, 5000 kPa	883 ± 1
303.15 K, 10000 kPa	887.4 ± 1.1
303.15 K, 15000 kPa	891.6 ± 1.3
303.15 K, 20000 kPa	895.6 ± 1.4
303.15 K, 25000 kPa	899.4 ± 1.5
303.15 K, 30000 kPa	904 ± 1.6
303.15 K, 35000 kPa	908.9 ± 1.7
308.15 K, 100 kPa	872.7 ± 0.8
308.15 K, 1000 kPa	873.2 ± 0.9
308.15 K, 2000 kPa	874.2 ± 0.9
308.15 K, 3000 kPa	875.2 ± 0.9
308.15 K, 3340 kPa	875.5 ± 0.9
308.15 K, 5000 kPa	877.4 ± 1
308.15 K, 10000 kPa	882 ± 1.1
308.15 K, 15000 kPa	886.3 ± 1.3
308.15 K, 20000 kPa	890.4 ± 1.4
308.15 K, 25000 kPa	894.3 ± 1.6
308.15 K, 30000 kPa	899.2 ± 1.7
308.15 K, 35000 kPa	904.2 ± 1.7
313.15 K, 100 kPa	866.8 ± 0.8
313.15 K, 1000 kPa	867.4 ± 0.9
313.15 K, 2000 kPa	868.4 ± 0.9
313.15 K, 3000 kPa	869.4 ± 0.9
313.15 K, 3340 kPa	869.8 ± 1
313.15 K, 5000 kPa	871.7 ± 1
313.15 K, 10000 kPa	876.5 ± 1.2
313.15 K, 15000 kPa	880.9 ± 1.3
313.15 K, 20000 kPa	885.1 ± 1.5
313.15 K, 25000 kPa	889.3 ± 1.6
313.15 K, 30000 kPa	894.4 ± 1.7
313.15 K, 35000 kPa	899.5 ± 1.8
318.15 K, 100 kPa	860.9 ± 0.9
318.15 K, 1000 kPa	861.5 ± 0.9
318.15 K, 2000 kPa	862.6 ± 0.9
318.15 K, 3000 kPa	863.7 ± 1
318.15 K, 3340 kPa	864.1 ± 1
318.15 K, 5000 kPa	866.1 ± 1
318.15 K, 10000 kPa	871 ± 1.2
318.15 K, 15000 kPa	875.6 ± 1.4
318.15 K, 20000 kPa	880 ± 1.5
318.15 K, 25000 kPa	884.1 ± 1.7
318.15 K, 30000 kPa	889.1 ± 1.8
318.15 K, 35000 kPa	894.3 ± 1.9
323.15 K, 100 kPa	854.9 ± 0.9
323.15 K, 1000 kPa	856 ± 0.9
323.15 K, 2000 kPa	857.1 ± 0.9
323.15 K, 3000 kPa	858.1 ± 1
323.15 K, 3340 kPa	858.4 ± 1
323.15 K, 5000 kPa	860.3 ± 1.1
323.15 K, 10000 kPa	865.4 ± 1.2
323.15 K, 15000 kPa	870.2 ± 1.4
323.15 K, 20000 kPa	874.7 ± 1.6
323.15 K, 25000 kPa	879.1 ± 1.7
323.15 K, 30000 kPa	884.3 ± 1.8
323.15 K, 35000 kPa	889.7 ± 1.9
328.15 K, 100 kPa	849.2 ± 0.9
328.15 K, 1000 kPa	850.2 ± 0.9
328.15 K, 2000 kPa	851.3 ± 1
328.15 K, 3000 kPa	852.5 ± 1
328.15 K, 3340 kPa	852.9 ± 1
328.15 K, 5000 kPa	854.7 ± 1.1
328.15 K, 10000 kPa	860 ± 1.3
328.15 K, 15000 kPa	865 ± 1.4
328.15 K, 20000 kPa	869.6 ± 1.6
328.15 K, 25000 kPa	874 ± 1.8
328.15 K, 30000 kPa	879.4 ± 1.9
328.15 K, 35000 kPa	884.9 ± 2
333.15 K, 100 kPa	843.1 ± 0.9
333.15 K, 1000 kPa	844.2 ± 0.9
333.15 K, 2000 kPa	845.4 ± 1
333.15 K, 3000 kPa	846.6 ± 1
333.15 K, 3340 kPa	847 ± 1
333.15 K, 5000 kPa	849 ± 1.1
333.15 K, 10000 kPa	854.6 ± 1.3
333.15 K, 15000 kPa	859.7 ± 1.5
333.15 K, 20000 kPa	864.5 ± 1.7
333.15 K, 25000 kPa	869.2 ± 1.8
333.15 K, 30000 kPa	874.8 ± 1.9
333.15 K, 35000 kPa	880.6 ± 2.1
338.15 K, 100 kPa	836.9 ± 0.9
338.15 K, 1000 kPa	838.2 ± 1
338.15 K, 2000 kPa	839.5 ± 1
338.15 K, 3000 kPa	840.7 ± 1
338.15 K, 3340 kPa	841.1 ± 1.1
338.15 K, 5000 kPa	843.1 ± 1.1
338.15 K, 10000 kPa	848.8 ± 1.3
338.15 K, 15000 kPa	854.4 ± 1.5
338.15 K, 20000 kPa	859.4 ± 1.7
338.15 K, 25000 kPa	863.6 ± 1.9
338.15 K, 30000 kPa	869.9 ± 2
338.15 K, 35000 kPa	875.8 ± 2.1
343.15 K, 100 kPa	831.1 ± 0.9
343.15 K, 1000 kPa	832.2 ± 1
343.15 K, 2000 kPa	833.5 ± 1
343.15 K, 3000 kPa	834.8 ± 1.1
343.15 K, 3340 kPa	835.2 ± 1.1
343.15 K, 5000 kPa	837.4 ± 1.2
343.15 K, 10000 kPa	843.4 ± 1.4
343.15 K, 15000 kPa	848.9 ± 1.6
343.15 K, 20000 kPa	854 ± 1.7
343.15 K, 25000 kPa	859.1 ± 1.9
343.15 K, 30000 kPa	865 ± 2.1
343.15 K, 35000 kPa	871 ± 2.2
348.15 K, 100 kPa	824.9 ± 0.9
348.15 K, 1000 kPa	826 ± 1
348.15 K, 2000 kPa	827.4 ± 1
348.15 K, 3000 kPa	828.8 ± 1.1
348.15 K, 3340 kPa	829.3 ± 1.1
348.15 K, 5000 kPa	831.5 ± 1.2
348.15 K, 10000 kPa	837.7 ± 1.4
348.15 K, 15000 kPa	843.4 ± 1.6
348.15 K, 20000 kPa	848.8 ± 1.8
348.15 K, 25000 kPa	854 ± 2
348.15 K, 30000 kPa	860.1 ± 2.1
348.15 K, 35000 kPa	866.3 ± 2.2
353.15 K, 100 kPa	818.7 ± 1
353.15 K, 1000 kPa	819.9 ± 1
353.15 K, 2000 kPa	821.3 ± 1.1
353.15 K, 3000 kPa	822.7 ± 1.1
353.15 K, 3340 kPa	823.2 ± 1.1
353.15 K, 5000 kPa	825.6 ± 1.2
353.15 K, 10000 kPa	832.1 ± 1.4
353.15 K, 15000 kPa	838 ± 1.6
353.15 K, 20000 kPa	843.5 ± 1.8
353.15 K, 25000 kPa	848.9 ± 2
353.15 K, 30000 kPa	855.3 ± 2.2
353.15 K, 35000 kPa	861.6 ± 2.3
363.15 K, 100 kPa	803.5 ± 1
363.15 K, 1000 kPa	805.1 ± 1.1
363.15 K, 2000 kPa	806.9 ± 1.1
363.15 K, 3000 kPa	808.7 ± 1.2
363.15 K, 3340 kPa	809.3 ± 1.2
363.15 K, 5000 kPa	812 ± 1.3
363.15 K, 10000 kPa	819.6 ± 1.5
363.15 K, 15000 kPa	826.5 ± 1.7
363.15 K, 20000 kPa	833 ± 1.9
363.15 K, 25000 kPa	839.1 ± 2.1
363.15 K, 30000 kPa	844.8 ± 2.3
363.15 K, 35000 kPa	850.2 ± 2.5
373.15 K, 100 kPa	790.9 ± 1
373.15 K, 1000 kPa	792.6 ± 1.1
373.15 K, 2000 kPa	794.5 ± 1.2
373.15 K, 3000 kPa	796.4 ± 1.2
373.15 K, 3340 kPa	797.1 ± 1.2
373.15 K, 5000 kPa	800 ± 1.3
373.15 K, 10000 kPa	808.2 ± 1.6
373.15 K, 15000 kPa	815.6 ± 1.8
373.15 K, 20000 kPa	822.5 ± 2
373.15 K, 25000 kPa	829 ± 2.2
373.15 K, 30000 kPa	834.9 ± 2.4
373.15 K, 35000 kPa	840.6 ± 2.6
383.15 K, 1000 kPa	780 ± 1.1
383.15 K, 2000 kPa	782.1 ± 1.2
383.15 K, 3000 kPa	784.1 ± 1.3
383.15 K, 3340 kPa	784.8 ± 1.3
383.15 K, 5000 kPa	787.9 ± 1.4
383.15 K, 10000 kPa	796.6 ± 1.6
383.15 K, 15000 kPa	804.6 ± 1.9
383.15 K, 20000 kPa	811.9 ± 2.1
383.15 K, 25000 kPa	818.7 ± 2.3
383.15 K, 30000 kPa	825 ± 2.5
383.15 K, 35000 kPa	830.9 ± 2.7
393.15 K, 1000 kPa	766.4 ± 1.2
393.15 K, 2000 kPa	768.7 ± 1.2
393.15 K, 3000 kPa	770.8 ± 1.3
393.15 K, 3340 kPa	771.5 ± 1.3
393.15 K, 5000 kPa	775 ± 1.4
393.15 K, 10000 kPa	784.5 ± 1.7
393.15 K, 15000 kPa	793.1 ± 2
393.15 K, 20000 kPa	800.8 ± 2.2
393.15 K, 25000 kPa	808 ± 2.4
393.15 K, 30000 kPa	814.7 ± 2.6
393.15 K, 35000 kPa	820.9 ± 2.8
